For 13 compounds, IC50 results are on record in patent US20240140958A1, “FUSED QUADRACYCLIC COMPOUNDS, COMPOSITIONS AND USES THEREOF” (Tabomedex Biosciences, Inc., priority 2021, published 2024).

The test system of one experiment is THP-1 cells. The experiment in a line: THP-1 cell assay: LPS-stimulated pSer78-Hsp27 ELISA. Format: cell-based. The note with it: Homo sapiens, PMA-differentiated THP-1 cells, compound 60 min before 20 ng/mL LPS for 30 min. The gist of the method:
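PMA-differentiated THP-1 cells (20 ng/mL PMA 24 h, then 48 h recovery) pretreated with compound 60 min, then stimulated with 20 ng/mL LPS for 30 min. Lysates (~2.5 μg/well) assayed by sandwich ELISA for pSer78-Hsp27, absorbance at 450 nm.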
On the technique in general: An ELISA detects its analyte on a solid surface through an enzyme-linked reagent.

Experiment [1] addresses T1, MAPKAPK2 Recombinant Human Protein (Homo sapiens, UniProt P49137).
T1 construct: purchased ThermoFisher pv3317
The experiment in a line: MK2 kinase assay (Z'-LYTE kinase assay kit). The note with it: inhibition of MK2 biochemical activity; 90 min incubation at room temperature. The gist of the method:
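Z'-LYTE FRET assay with recombinant human MAPKAPK2 and peptide substrate; compound and ATP added, kinase reaction 90 min at room temperature, then development 60 min before stop. Coumarin (445 nm) and fluorescein (520 nm) emissions read at 400 nm excitation.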

T1 sequence (P49137 whole entry): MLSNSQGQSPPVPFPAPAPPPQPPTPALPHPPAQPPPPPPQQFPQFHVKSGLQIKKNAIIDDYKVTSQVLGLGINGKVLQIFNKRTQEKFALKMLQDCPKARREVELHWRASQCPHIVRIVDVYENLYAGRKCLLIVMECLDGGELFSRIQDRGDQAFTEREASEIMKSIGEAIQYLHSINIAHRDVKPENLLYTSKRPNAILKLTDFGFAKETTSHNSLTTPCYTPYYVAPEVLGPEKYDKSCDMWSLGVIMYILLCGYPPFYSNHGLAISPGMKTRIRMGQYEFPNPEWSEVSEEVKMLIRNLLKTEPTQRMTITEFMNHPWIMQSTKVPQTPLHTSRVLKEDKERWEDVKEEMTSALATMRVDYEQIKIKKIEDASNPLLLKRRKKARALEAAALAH

In the case of `CN1CC(C)(CN2C(=O)CN(c3ccc4c(c3)Cn3cc(-c5ccc(C#N)cc5)cc3-c3nccn3-4)C2=O)C1` [Example 65, 4-(7-(3-((1,3-Dimethylazetidin-3-yl)methyl)-2,4-dioxoimidazolidin-1-yl)-9H-benzo[e]imidazo[2,1-c]pyrrolo[1,2-a][1,4]diazepin-12-yl)benzonitrile], the IC50 (in the experiment with THP-1 cells; in experiment [1]) was less than 50 nM each time.

For `N#Cc1ccc(-c2cc3n(c2)Cc2cc(N4CC(=O)N(CC5CNC5)C4=O)ccc2-n2ccnc2-3)cc1` [Example 66], the IC50 was more than 1000 nM in the experiment on THP-1 cells and less than 50 nM in experiment [1].

On to `CN1CC(CN2C(=O)CN(c3ccc4c(c3)Cn3cc(-c5ccc(C#N)cc5)cc3-c3nccn3-4)C2=O)C1` [Example 67], for which the results for the IC50 (with THP-1 cells; in experiment [1]) were more than 1000 nM and less than 50 nM, respectively.

For `CC(C)(N)CN1C(=O)CN(c2ccc3c(c2)Cn2cc(-c4ccc(C#N)cc4)cc2-c2nccn2-3)C1=O` [Example 68], the IC50 (in the experiment on THP-1 cells; in experiment [1]) was less than 50 nM in each case.

For `CN1CC(N2C(=O)CN(c3ccc4c(c3)Cn3cc(-c5ccc(C#N)cc5)cc3-c3nccn3-4)C2=O)C1` [Example 69], the IC50 (in the experiment on THP-1 cells; in experiment [1]) was less than 50 nM in each case.

With `CN(C)CCn1ccn(-c2ccc3c(c2)Cn2cc(-c4ccc(C#N)cc4)cc2-c2nccn2-3)c1=O` [Example 70, 4-(7-(3-(2-(Dimethylamino)ethyl)-2-oxo-2,3-dihydro-1H-imidazol-1-yl)-9H-benzo[e]imidazo[2,1-c]pyrrolo[1,2-a][1,4]diazepin-12-yl)benzonitrile], the figures for the IC50 (in the experiment with THP-1 cells; in experiment [1]) were 500 to 1000 nM and less than 50 nM, respectively.

For `CN1CC(n2ccn(-c3ccc4c(c3)Cn3cc(-c5ccc(C#N)cc5)cc3-c3nccn3-4)c2=O)C1` [Example 71, 4-(7-(3-(1-Methylazetidin-3-yl)-2-oxo-2,3-dihydro-1H-imidazol-1-yl)-9H-benzo[e]imidazo[2,1-c]pyrrolo[1,2-a][1,4]diazepin-12-yl)benzonitrile], the 50% inhibitory concentration (IC50) lay within 200 to 300 nM with THP-1 cells and 50 to 100 nM in experiment [1].

Consider `CN(C)C1CCN(C(=O)Nc2ccc3c(c2)Cn2cc(-c4ccc(C#N)cc4)cc2-c2nccn2-3)C1` (centres unmarked) [Example 72], for which the IC50 (in the experiment with THP-1 cells; in experiment [1]) was less than 50 nM throughout.

Regarding `CN(C)[C@H]1CCN(C(=O)Nc2ccc3c(c2)Cn2cc(-c4ccc(C#N)cc4)cc2-c2nccn2-3)C1` [Example 73], the IC50 (in the experiment on THP-1 cells; in experiment [1]) was less than 50 nM in each case.

Take `CN(C)[C@@H]1CCN(C(=O)Nc2ccc3c(c2)Cn2cc(-c4ccc(C#N)cc4)cc2-c2nccn2-3)C1` [Example 74]: the IC50 with THP-1 cells is 50 to 100 nM; in experiment [1] it was less than 50 nM.

For the compound `CN(C)CCN1C(=O)CN(c2ccc3c(c2)Cn2cc(-c4ccc(C#N)cc4)cc2-c2nccn2-3)C1=O` [Example 75, 4-(7-(3-(2-(Dimethylamino)ethyl)-2,4-dioxoimidazolidin-1-yl)-9H-benzo[e]imidazo[2,1-c]pyrrolo[1,2-a][1,4]diazepin-12-yl)benzonitrile], the IC50 (in the experiment with THP-1 cells; in experiment [1]) was less than 50 nM in each case.

On to `N#Cc1ccc(-c2cc3n(c2)Cc2cc(NC(=O)C4CCNC4)ccc2-n2ccnc2-3)cc1` (centres unmarked) [Example 76, N-(12-(4-Cyanophenyl)-9H-benzo[e]imidazo[2,1-c]pyrrolo[1,2-a][1,4]diazepin-7-yl)pyrrolidine-3-carboxamide], for which the IC50 was 1000 to 1500 nM in the experiment on THP-1 cells and less than 50 nM in experiment [1].

With `CC(C)N1CCC(C(=O)Nc2ccc3c(c2)Cn2cc(-c4ccc(C#N)cc4)cc2-c2nccn2-3)C1` (centres unmarked) [Example 77, N-(12-(4-Cyanophenyl)-9H-benzo[e]imidazo[2,1-c]pyrrolo[1,2-a][1,4]diazepin-7-yl)-1-isopropylpyrrolidine-3-carboxamide], the half-inhibitory concentration (IC50) in the experiment on THP-1 cells lay within 100 to 200 nM; in experiment [1], 50 to 100 nM.

The term IC50 denotes the midpoint of a concentration-inhibition curve.
